Experimental data from patent US9163256B2, “Mutant receptors and their use in a nuclear receptor-based inducible gene expression system” (priority 2004, dated 2015).

Key:
[1] = target: CfEcR-DEF mutant V107I/Y127E/T52V (Choristoneura fumiferana, UniProt O77255, T335V/V390I/Y410E); experiment: GAL4-driven luciferase reporter assay in NIH3T3 cells; format: cell-based
Experimental: (§1) This construct was prepared in the same way as in switch 1.1 above except wild-type CfEcR-DEF was replaced with mutant CfEcR-DEF comprising a ligand binding domain comprising a substitution mutation selected from Table 1 below.
(§2) DNAs were transfected into mouse NIH3T3 cells (ATCC) as follows. Standard methods for culture and maintenance of the cells were followed. Cells were harvested and plated 96-well plates at 2,500 cells per well, in 50 μL of growth medium containing 10% fetal bovine serum (FBS). Twenty-four hours later, the cells were treated with 35 μL of serum-free growth medium containing either dimethylsulfoxide (DMSO; control) or a DMSO solution of ligand. The cells were then transfected using Superfect (Qiagen Inc.) transfection reagent. For each well, 0.625 μL of Superfect was mixed with 14.2 μL of serum-free growth medium. 0.16 μg of reporter construct and 0.04 μg of each receptor construct were added to the transfection reagent mix. The contents of the transfection mix were mixed in a vortex mixer and let stand at room temperature for 30 minutes. At the end of incubation, 15 μL of transfection mix was added to the cells. The cells were maintained at 37° C. and 5% CO2 for 48 hours in 5% FBS.
(§3) Reporter Assays: Cells were harvested 40 hours after adding ligands. 125 μL of passive lysis buffer (part of Dual-Luciferase reporter assay system from Promega Corporation) were added to each well of the […] plate. The plates were placed on a rotary shaker for 15 minutes. Twenty μL of lysate were assayed. Luciferase activity was measured using Dual-Luciferase reporter assay system from Promega Corporation following the manufacturer's instructions. Fold induction (FI) activities were calculated by dividing relative light units (“RLU”) in ligand treated cells with RLU in DMSO treated cells (untreated control).

CfEcR-DEF mutant F48N = CfEcR-DEF mutant F48N (Choristoneura fumiferana, UniProt O77255, F331N); experiment: as above; format: cell-based
Experimental: as §1, §2, §3

[2] = target: CfEcR-DEF mutant T52V/A110P (Choristoneura fumiferana, UniProt O77255, A393P/T335V); experiment: as above; format: cell-based
CfEcR-DEF mutant T52V/A110P, sequence (O77255 entry or part of it T335V/A393P): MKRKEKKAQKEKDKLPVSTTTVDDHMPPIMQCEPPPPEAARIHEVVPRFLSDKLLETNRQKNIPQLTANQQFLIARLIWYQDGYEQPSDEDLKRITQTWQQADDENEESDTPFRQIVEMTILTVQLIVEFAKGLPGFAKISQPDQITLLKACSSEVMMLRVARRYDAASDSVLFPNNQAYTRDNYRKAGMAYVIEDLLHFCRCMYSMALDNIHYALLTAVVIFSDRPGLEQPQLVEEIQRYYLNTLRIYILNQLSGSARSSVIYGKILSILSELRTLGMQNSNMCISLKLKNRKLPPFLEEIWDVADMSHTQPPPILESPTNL
CfEcR-DEF mutant T52V/A110P, sequence (P28702 299-449, stated change not applied, further chain): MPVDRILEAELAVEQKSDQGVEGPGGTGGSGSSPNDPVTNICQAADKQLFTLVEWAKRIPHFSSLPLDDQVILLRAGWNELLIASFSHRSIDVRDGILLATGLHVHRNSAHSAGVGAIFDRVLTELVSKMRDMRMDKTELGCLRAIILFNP
Experimental: as §1, §2, §3

CfEcR-DEF mutant M125W = CfEcR-DEF mutant M125W (Choristoneura fumiferana, UniProt O77255, M408W); experiment: as above; format: cell-based
CfEcR-DEF mutant M125W, sequence (O77255 entry or part of it M408W): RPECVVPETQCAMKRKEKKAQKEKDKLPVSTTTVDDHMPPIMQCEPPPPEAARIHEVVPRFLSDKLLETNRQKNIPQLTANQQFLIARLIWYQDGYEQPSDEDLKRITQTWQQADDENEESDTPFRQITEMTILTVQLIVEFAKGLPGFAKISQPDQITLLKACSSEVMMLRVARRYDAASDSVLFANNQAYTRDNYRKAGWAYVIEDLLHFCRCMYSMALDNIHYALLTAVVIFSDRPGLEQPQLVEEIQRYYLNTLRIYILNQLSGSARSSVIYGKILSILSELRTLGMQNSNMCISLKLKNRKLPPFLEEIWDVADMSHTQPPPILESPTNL
CfEcR-DEF mutant M125W, sequence (P28702 299-449, further chain): as the sequence (P28702 299-449, stated change not applied, further chain) above
Experimental: as §1, §2, §3

CfEcR-DEF mutant V96L = CfEcR-DEF mutant V96L (Choristoneura fumiferana, UniProt O77255, V379L); experiment: cell-based
CfEcR-DEF mutant V96L, sequence (O77255 entry or part of it V379L): as the sequence (O77255 entry or part of it T335V/A393P) above, with V117T, V161L, P175A counted along it
CfEcR-DEF mutant V96L, sequence (P28702 299-449, further chain): as the sequence (P28702 299-449, stated change not applied, further chain) above
Experimental: as §1, §2, §3

CfEcR-DEF mutant V96W = CfEcR-DEF mutant V96W (Choristoneura fumiferana, UniProt O77255, V379W); experiment: cell-based
CfEcR-DEF mutant V96W, sequence (O77255 entry or part of it V379W): as the sequence (O77255 entry or part of it T335V/A393P) above, with V117T, V161W, P175A counted along it
CfEcR-DEF mutant V96W, sequence (P28702 299-449, further chain): as the sequence (P28702 299-449, stated change not applied, further chain) above
Experimental: as §1, §2, §3

CfEcR-DEF mutant M92L = CfEcR-DEF mutant M92L (Choristoneura fumiferana, UniProt O77255, M375L); experiment: cell-based
CfEcR-DEF mutant M92L, sequence (O77255 entry or part of it M375L): as the sequence (O77255 entry or part of it T335V/A393P) above, with V117T, M157L, P175A counted along it
CfEcR-DEF mutant M92L, sequence (P28702 299-449, further chain): as the sequence (P28702 299-449, stated change not applied, further chain) above
Experimental: as §1, §2, §3

CfEcR-DEF mutant F109N = CfEcR-DEF mutant F109N (Choristoneura fumiferana, UniProt O77255, F392N); experiment: cell-based
Experimental: as §1, §2, §3

CfEcR-DEF mutant M125E = CfEcR-DEF mutant M125E (Choristoneura fumiferana, UniProt O77255, M408E); experiment: cell-based
Experimental: as §1, §2, §3

CfEcR-DEF mutant A110P = CfEcR-DEF mutant A110P (Choristoneura fumiferana, UniProt O77255, A393P); experiment: cell-based
CfEcR-DEF mutant A110P, sequence (O77255 entry or part of it A393P): as the sequence (O77255 entry or part of it M408W) above, with A187P, W202M counted along it
CfEcR-DEF mutant A110P, sequence (P28702 299-449, stated change not applied, further chain): as the sequence (P28702 299-449, stated change not applied, further chain) above
Experimental: as §1, §2, §3

CfEcR-DEF mutant F48L = CfEcR-DEF mutant F48L (Choristoneura fumiferana, UniProt O77255, F331L); experiment: cell-based
Experimental: as §1, §2, §3

CfEcR-DEF mutant L234M = CfEcR-DEF mutant L234M (Choristoneura fumiferana, UniProt O77255, L517M); experiment: cell-based
Experimental: as §1, §2, §3

CfEcR-DEF mutant W238P = CfEcR-DEF mutant W238P (Choristoneura fumiferana, UniProt O77255, W521P); experiment: cell-based
Experimental: as §1, §2, §3

CfEcR-DEF mutant Y120W = CfEcR-DEF mutant Y120W (Choristoneura fumiferana, UniProt O77255, Y403W); experiment: cell-based
CfEcR-DEF mutant Y120W, sequence (O77255 entry or part of it Y403W): as the sequence (O77255 entry or part of it T335V/A393P) above, with V117T, P175A, Y185W counted along it
CfEcR-DEF mutant Y120W, sequence (P28702 299-449, further chain): as the sequence (P28702 299-449, stated change not applied, further chain) above
Experimental: as §1, §2, §3

CfEcR-DEF mutant R95M = CfEcR-DEF mutant R95M (Choristoneura fumiferana, UniProt O77255, R378M); experiment: cell-based
Experimental: as §1, §2, §3

CfEcR-DEF mutant R95W = CfEcR-DEF mutant R95W (Choristoneura fumiferana, UniProt O77255, R378W); experiment: cell-based
CfEcR-DEF mutant R95W, sequence (O77255 entry or part of it R378W): as the sequence (O77255 entry or part of it T335V/A393P) above, with V117T, R160W, P175A counted along it
CfEcR-DEF mutant R95W, sequence (P28702 299-449, further chain): as the sequence (P28702 299-449, stated change not applied, further chain) above
Experimental: as §1, §2, §3

CfEcR-DEF mutant I51L = CfEcR-DEF mutant I51L (Choristoneura fumiferana, UniProt O77255, I334L); experiment: cell-based
Experimental: as §1, §2, §3

CfEcR-DEF mutant T52E = CfEcR-DEF mutant T52E (Choristoneura fumiferana, UniProt O77255, T335E); experiment: cell-based
Experimental: as §1, §2, §3

CfEcR-DEF mutant M54W = CfEcR-DEF mutant M54W (Choristoneura fumiferana, UniProt O77255, M337W); experiment: cell-based
CfEcR-DEF mutant M54W, sequence (O77255 entry or part of it M337W): as the sequence (O77255 entry or part of it M408W) above, with M131W, W202M counted along it
CfEcR-DEF mutant M54W, sequence (P28702 299-449, further chain): as the sequence (P28702 299-449, stated change not applied, further chain) above
Experimental: as §1, §2, §3

CfEcR-DEF mutant W238Y = CfEcR-DEF mutant W238Y (Choristoneura fumiferana, UniProt O77255, W521Y); experiment: cell-based
Experimental: as §1, §2, §3

CfEcR-DEF mutant A110W = CfEcR-DEF mutant A110W (Choristoneura fumiferana, UniProt O77255, A393W); experiment: cell-based
Experimental: as §1, §2, §3

[3] = NIH3T3, 40 h, read-out: Rel Max FI

Cc1cc(C)cc(C(=O)N(NC(=O)c2cccc(C(C)C)c2C)C(C)(C)C)c1 [RG-102362, 3,5-Dimethyl-benzoic acid N-tert-butyl-N′-(3-isopropyl-2-methyl-benzoyl)-hydrazide]
EC50 [1]: < 0.01 µM | Emax [1, 3]: 73% | EC50 (CfEcR-DEF mutant F48N): 1.68 µM | Emax (CfEcR-DEF mutant F48N; [3]): 66% | EC50 [2]: 0.32 µM | Emax [2, 3]: 94% | EC50 (CfEcR-DEF mutant M125W): 3.5 µM | Emax (CfEcR-DEF mutant M125W; [3]): 44% | EC50 (CfEcR-DEF mutant V96L): 2.67 µM | Emax (CfEcR-DEF mutant V96L; [3]): 58% | EC50 (CfEcR-DEF mutant V96W): 3.26 µM | Emax (CfEcR-DEF mutant V96W; [3]): 38% | EC50 (CfEcR-DEF mutant M92L): ~20 µM | Emax (CfEcR-DEF mutant M92L; [3]): 5% | EC50 (CfEcR-DEF mutant F109N): 1.85 µM | Emax (CfEcR-DEF mutant F109N; [3]): 40% | EC50 (CfEcR-DEF mutant M125E): 0.83 µM | Emax (CfEcR-DEF mutant M125E; [3]): 40% | EC50 (CfEcR-DEF mutant A110P): 0.77 µM | Emax (CfEcR-DEF mutant A110P; [3]): 64% | EC50 (CfEcR-DEF mutant F48L): 0.56 µM | Emax (CfEcR-DEF mutant F48L; [3]): 53% | EC50 (CfEcR-DEF mutant L234M): 2.04 µM | Emax (CfEcR-DEF mutant L234M; [3]): 43% | EC50 (CfEcR-DEF mutant W238P): 0.29 µM | Emax (CfEcR-DEF mutant W238P; [3]): 40% | EC50 (CfEcR-DEF mutant Y120W): 4.96 µM | Emax (CfEcR-DEF mutant Y120W; [3]): 67% | EC50 (CfEcR-DEF mutant R95M): 4.28 µM | Emax (CfEcR-DEF mutant R95M; [3]): 27% | EC50 (CfEcR-DEF mutant R95W): ~8 µM | Emax (CfEcR-DEF mutant R95W; [3]): 25% | EC50 (CfEcR-DEF mutant I51L): 3.35 µM | Emax (CfEcR-DEF mutant I51L; [3]): 53% | EC50 (CfEcR-DEF mutant T52E): 7.16 µM | Emax (CfEcR-DEF mutant T52E; [3]): 34% | EC50 (CfEcR-DEF mutant M54W): 1.24 µM | Emax (CfEcR-DEF mutant M54W; [3]): 44% | EC50 (CfEcR-DEF mutant W238Y): > 33 µM | Emax (CfEcR-DEF mutant W238Y; [3]): 6% | EC50 (CfEcR-DEF mutant A110W): 2.99 µM | Emax (CfEcR-DEF mutant A110W; [3]): 55%
